Assay results published in patent US10829520B2, “Beta-hairpin peptidomimetics” (POLYPHOR AG, priority 2015, dated 2020).
Read-outs that look alike come from different tables or passages of the source. Where a SMILES comes first, the peptide text is derived from it. Bridges are numbered along the chain shown (N, C = ends). [ ]: non-standard residue; d: D form. Tle = CC(C)(C)[C@H](N)C(=O)O; NMeC = CN[C@@H](CS)C(=O)O; dDab = NCC[C@@H](N)C(=O)O; Nle = CCCC[C@H](N)C(=O)O; Orn = NCCC[C@H](N)C(=O)O; Dab = NCC[C@H](N)C(=O)O; Dap = NC[C@H](N)C(=O)O; Sar = CNCC(=O)O

Experiments:
Type in all cases: cell-based
[1] = tested on: human red blood cells (hRBC); assay: Hemolysis of human red blood cells; details: 100 μg/mL
Summary of the method: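 Washed fresh human erythrocytes (20% v/v, ~0.9×10^9 cells/mL final) were incubated with peptides at 100 μg/mL for 1 h at 37 °C with shaking. Supernatant OD540 measured; hemolysis expressed as % of 2.5% Triton X-100 lysis, with PBS/0.001% acetic acid as 0%.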

[2] = tested on: Klebsiella pneumoniae SSI #3010
Summary of the method: (§1)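 Using the CLSI reference method, each strain at approx. 10^6 CFU/mL was exposed to serially diluted peptide in MH-II broth with 0.002% P-80. After 18-20 h at 35° C, the lowest concentration showing no visible growth gave the MIC.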

[3] = tested on: Escherichia coli ATCC 25922
Summary of the method: as §1

Escherichia coli 926415 = tested on: Escherichia coli 926415
[4] = tested on: Pseudomonas aeruginosa ATCC 27853
Summary of the method: as §1

[5] = tested on: Acinetobacter baumannii DSM 30008
Summary of the method: as §1

[6] = tested on: Klebsiella pneumoniae 968733
[7] = tested on: Acinetobacter baumannii 872842
[8] = clinical isolate, Mueller-Hinton II broth, P-80 0.002% present

Compound	Hemolysis at 100 μg/mL ([1]; 20% hRBC, 1 h at 37° C.) [%]	Klebsiella pneumoniae SSI #3010 MIC ([2]; Mueller-Hinton II broth) [µg/mL]	Escherichia coli ATCC 25922 MIC ([3]; Mueller-Hinton II broth) [µg/mL]	Escherichia coli 926415 MIC (Escherichia coli 926415; [8]) [µg/mL]	Pseudomonas aeruginosa ATCC 27853 MIC ([4]; Mueller-Hinton II broth) [µg/mL]	Acinetobacter baumannii DSM 30008 MIC ([5]; Mueller-Hinton II broth) [µg/mL]	Klebsiella pneumoniae 968733 MIC [6, 8] [µg/mL]	Acinetobacter baumannii 872842 MIC [7, 8] [µg/mL]	Hemolysis at 100 μg/mL ([1]; red cells of human, 1 h) [%]	Klebsiella pneumoniae SSI #3010 MIC ([2]; SSI #3010) [µg/mL]	Escherichia coli ATCC 25922 MIC ([3]; ATCC 25922) [µg/mL]	Escherichia coli 926415 MIC (Escherichia coli 926415; 926415) [µg/mL]	Pseudomonas aeruginosa ATCC 27853 MIC ([4]; ATCC 27853) [µg/mL]	Acinetobacter baumannii DSM 30008 MIC ([5]; DSM 30008) [µg/mL]	Klebsiella pneumoniae 968733 MIC [6]; 968733 [µg/mL]	Acinetobacter baumannii 872842 MIC [7]; 872842 [µg/mL]
CC(C)C[C@@H]1NC(=O)[C@@H](CC(C)C)NC(=O)[C@H](CCN)NC(=O)[C@@H](NC(=O)[C@H](CCN)NC(=O)CN(C)C(=O)[C@@H]2CSSC[C@H](N)C(=O)N[C@@H](Cc3c[nH]c4ccccc34)C(=O)N[C@@H](CCN)C(=O)N[C@@H](C(C)C)C(=O)N[C@H]3CSSC[C@H](NC(=O)[C@H](CC(C)C)NC(=O)[C@@H]4CCCN4C(=O)[C@H]4CCCN4C(=O)[C@H](Cc4ccc(O)cc4)NC3=O)C(=O)N[C@@H](Cc3ccc(O)cc3)C(=O)N[C@@H](CCN)C(=O)N[C@@H](CCCN)C(=O)N2)CCNC(=O)[C@H]([C@@H](C)O)NC(=O)[C@H](CCN)NC(=O)[C@H](CCN)NC1=O [Ex. 213] (H-CW[Dab]VCY[dP]PLCY[Dab][Orn]C[Sar][Dab][Dab][Dab][dL]L[Dab][Dab]T; disulfide 1-14, 5-10; lactam 17-C)	3	0.5	0.125	0.5	0.5	0.5	1	0.5								
CCCC[C@@H]1NC(=O)[C@@H]2CCCN2C(=O)[C@H]2CCCN2C(=O)[C@H](CO)NC(=O)[C@H](CC(N)=O)NC(=O)[C@H](C(C)(C)C)NC(=O)[C@H](CCN)NC(=O)[C@H](Cc2c[nH]c3ccccc23)NC(=O)[C@@H](NC)CSSC[C@@H](C(=O)N(C)CC(=O)N[C@H](CCN)C(=O)N[C@@H](CCN)C(=O)N[C@H]2CCNC(=O)[C@H]([C@@H](C)O)NC(=O)[C@H](CCN)NC(=O)[C@H](CCN)NC(=O)[C@H](CC(C)C)NC(=O)[C@@H](CC(C)C)NC(=O)[C@H](CCN)NC2=O)NC(=O)[C@H](CCCN)NC(=O)[C@H](CCN)NC(=O)[C@H](Cc2ccc(O)cc2)NC(=O)[C@H](CN)NC1=O [Ex. 214] (H-[NMeC]W[Dab][Tle]NS[dP]P[Nle][Dap]Y[Dab][Orn]C[Sar][dDab][Dab][Dab][Dab][dL]L[Dab][Dab]T; disulfide 1-14; lactam 18-C)									1	1	0.5	2	0.5	2	8	0.5
CCCC[C@@H]1NC(=O)[C@@H]2CCCN2C(=O)[C@H]2CCCN2C(=O)[C@H](CO)NC(=O)[C@H](C)NC(=O)[C@H](C(C)(C)C)NC(=O)[C@H](CCN)NC(=O)[C@H](Cc2c[nH]c3ccccc23)NC(=O)[C@@H](N)CSSC[C@@H](C(=O)N[C@H](CCN)C(=O)N[C@H]2CCN(C)C(=O)[C@H]([C@@H](C)O)NC(=O)[C@H](CCN)NC(=O)[C@H](CCN)NC(=O)[C@H](CC(C)C)NC(=O)[C@@H](Cc3ccccc3)NC(=O)[C@H](CCN)NC2=O)NC(=O)[C@H](CCCN)NC(=O)[C@H](CCN)NC(=O)[C@H](Cc2ccc(O)cc2)NC(=O)[C@H](CO)NC1=O [Ex. 215]									<1	0.25	0.25	0.25	1	0.25	0.5	1
CCCC[C@@H]1NC(=O)[C@@H]2CCCN2C(=O)[C@H]2CCCN2C(=O)[C@H](CO)NC(=O)[C@H](C)NC(=O)[C@H](C(C)(C)C)NC(=O)[C@H](CCN)NC(=O)[C@H](Cc2c[nH]c3ccccc23)NC(=O)[C@@H](N)CSSC[C@@H](C(=O)N[C@H](CCN)C(=O)N[C@H]2CCN(C)C(=O)[C@H](C(C)C)NC(=O)[C@H](CCN)NC(=O)[C@H](CCN)NC(=O)[C@H](CC(C)C)NC(=O)[C@@H](Cc3ccccc3)NC(=O)[C@H](CCN)NC2=O)NC(=O)[C@H](CCCN)NC(=O)[C@H](CCN)NC(=O)[C@H](Cc2ccc(O)cc2)NC(=O)[C@H](CO)NC1=O [Ex. 216]									1	0.125	0.125	0.0625	0.5	0.125	0.25	0.5
